Results published in patent publication US8648035B2 (priority 2007, dated 2014).

Experiments:
[1] = tested on: E. coli cell-free transcription-translation system; format: biochemical; settings: for IC50: read-out: IC50 for inhibition of protein synthesis (firefly luciferase)
[2] = tested on: E. coli cell-free transcription-translation system; format: biochemical; settings: bacterial system

Substance | stimulation of protein synthesis (luciferase) [1] | IC50 [1] | combination effect with antibiotic on inhibition of protein synthesis ([2]; combination with streptomycin or other related antibiotics) | increase of potency in inhibiting protein synthesis ([2]; in the presence of 3 μM streptomycin) | inhibition of synthesis of GFP [1]
SILPYPY [BLS26] | 20% | – | – | – | –
SYPDLHL [BLS25] | 20% | – | – | – | –
AMSAPIP [BLS18] | – | 137 µM | – | – | –
AGAAMSH [BLS15] | – | 15 µM | synergistic action | 25 fold | shown to inhibit synthesis of GFP
